# Results reported in patent US20230203485A1, “METHODS FOR MODULATING MHC-I EXPRESSION AND IMMUNOTHERAPY USES THEREOF” (Dana-Farber Cancer Institute, Inc., priority 2020, published 2023).
# System: class I antigen presentation gene expression in MCC cell lines
# Assay: RNA-seq / DESeq2 differential expression of MCC cell lines at baseline and after IFN-γ stimulation
# Assay type: cell-based, human
# Conditions: 11 MCC cell lines, baseline vs IFNγ, negative LFC = upregulation in IFNγ-treated
# Method: FIG. 2A comprises RNA-seq heatmaps of class I antigen presentation gene expression in MCC lines and controls.
# FIG. 2B is a volcano plot of differentially expressed genes (genes below FDR cutoff 0.01 are shown in yellow) between baseline and IFN-γ-treated MCC cell lines. Differential expression analysis was performed using DESeq2, and negative LFC indicates increased expression in +IFN-γ samples. IFN genes are highlighted in red.
# RNA samples were first assessed for quality using the Agilent Bioanalyzer (DV200 metric). One hundred ng of RNA were used as the input for first strand cDNA synthesis using Superscript III reverse transcriptase and Illumina's TruSeq RNA Access Sample Prep Kit. Synthesis of the second strand of cDNA was followed by indexed adapter ligation with UMI (unique molecular index) adaptors. Subsequent PCR amplification enriched for adapted fragments. Amplified libraries were quantified, normalized, pooled, and hybridized with exome targeting oligos. Following hybridization, bead clean-up, elution and PCR was performed to prepare library pools for sequencing on Illumina flowcell lanes. Transcriptomes were sequenced to a coverage of at least 50 million reads in pairs.
# Raw fastq files for fibroblast and keratinocyte control lines were downloaded from SRA using R Bioconductor package SRAdb (Mayakonda et al. (2018) supra; Zhu et al. (2013) BMC Bioinformatics 14 (1): 1-4) using accession codes SRP126422 (4 replicates from control samples ‘NN’) and SRP131347 (6 replicates with condition: control and genotype: control). These fastq files, along with those for the mkl1 and waga cell lines, were aligned using STAR version 2.7.3a (Dobin et al. (2013) Bioinformatics 29 (1): 15-21), using index genome reference file downloaded from ftp.ebi.ac.uk/pub/databases/gencode/Gencode_human/release_19/GRCh37.p13.genome.fa.gz, transcript annotation file downloaded from data.broadinstitute.org/snowman/hg19/star/gencode.v19.annotation.gtf, and with the following options: --twopassMode Basic, --outSAMstrandField intronMotif, --alignIntronMax 1000000, --alignMatesGapMax 1000000, --sjdbScore 2, --outSAMtype BAM Unsorted, --outSAMattributes NH HI NM MD AS XS, --outFilterType BySJout, --outSAMunmapped Within, --genomeLoad NoSharedMemory, --outFilterScoreMinOverLread 0, --outFilterMatchNminOverLread 0, --outFilterMismatchNmax 999, and outFilterMultimapNmax 20. Duplicates were marked with picard MarkDuplicates version 2.22.0-SNAPSHOT.
# RNA-sequencing bam files for MCC tumor and cell line samples were downloaded from the Broad Genomics Firecloud/Terra platform using the Google Cloud Storage command line tool gsutil version 4.5 (github.com/GoogleCloudPlatform/gsutil/).
# Gene counts were obtained from bam files using featureCounts version 2.0.0 (doi.org/10.1093/bioinformatics/btt656). Very lowly expressed genes with average count across samples less than 1 were excluded from analysis. Between-sample distance metrics were computed using the Euclidean distance on the vectors of variance-stabilized counts obtained from the vst function in the DESeq2 R Bioconductor package ([…]; Love et al. (2014) Genome Biology 15 (12): 550).
# Differential expression analysis was carried out between (1) viral positive and viral negative samples (adjusting for cell line or tumor as a covariate), (2) cell line and tumor samples (adjusting for viral status as a covariate), and (3) IFNγ plus and minus samples (adjusting for viral status as a covariate) using the negative binomial GLM Wald test of DESeq2, where significance was assessed using the p-values adjusted for multiple comparisons under default settings. To account for potential global gene expression differences among sample groups, RUVg (Risso et al. (2014) […] 32 (9): 896-902) was used to estimate latent factors of unwanted variation from the list of housekeeping genes downloaded from www.tau.ac.il/˜elieis/HKG/HK_genes.txt. […]
substance,measurement,setting,value
"IFN-y: type II interferon, recombinant human, used to treat MCC cells",log2FoldChange PLCH1 (ENSG00000114805.12),,−3.192
same,log2FoldChange PLSCR1 (ENSG00000188313.8),,−1.918
same,log2FoldChange PSMA1 (ENSG00000129084.13),,−0.53
same,log2FoldChange PSMA5 (ENSG00000143106.8),,−0.7265
same,log2FoldChange PSMB8 (ENSG00000204264.4),,−4.624
same,log2FoldChange PSMB8-AS1 (ENSG00000204261.4),,−4.829
same,log2FoldChange PSMB9 (ENSG00000240065.3),,−8.037
same,log2FoldChange RAB19 (ENSG00000146955.6),,−3.348
same,log2FoldChange RALB (ENSG00000144118.9),,−1.199
same,log2FoldChange RARRES3 (ENSG00000133321.6),,−9.075
same,log2FoldChange RASGRP3 (ENSG00000152689.13),,−3.804
same,log2FoldChange RCN1 (ENSG00000049449.4),,−0.8151
same,log2FoldChange RNASET2 (ENSG00000026297.11),,−1.4
same,log2FoldChange RNF19B (ENSG00000116514.12),,−0.8512
same,log2FoldChange RPS6KA2-AS1 (ENSG00000231654.1),,−4.029
same,log2FoldChange RSAD2 (ENSG00000134321.7),,−4.639
same,log2FoldChange RTP4 (ENSG00000136514.2),,−9.766
same,log2FoldChange RUFY4 (ENSG00000188282.8),,−4.154
same,log2FoldChange SAMD9L (ENSG00000177409.7),,−9.221
same,log2FoldChange SCYL3 (ENSG00000000457.9),,−0.6381
same,log2FoldChange SERPING1 (ENSG00000149131.11),,−10.06
same,log2FoldChange SERPINI2 (ENSG00000114204.10),,−4.132
same,log2FoldChange SLC15A3 (ENSG00000110446.5),,−6.048
same,log2FoldChange SMCO3 (ENSG00000179256.2),,−4.85
same,log2FoldChange SP100 (ENSG00000067066.12),,−6.178
same,log2FoldChange SP110 (ENSG00000135899.12),,−5.912
same,log2FoldChange SP140 (ENSG00000079263.14),,−4.071
same,log2FoldChange SP140L (ENSG00000185404.12),,−4.749
same,log2FoldChange SPATA1 (ENSG00000122432.12),,−1.828
same,log2FoldChange SRD5A3-AS1 (ENSG00000249700.4),,−1.935
same,log2FoldChange STAT1 (ENSG00000115415.14),,−4.434
same,log2FoldChange STAT2 (ENSG00000170581.9),,−2.028
same,log2FoldChange SYNJ2 (ENSG00000078269.9),,−1.182
same,log2FoldChange TAP1 (ENSG00000168394.9),,−6.326
same,log2FoldChange TAP2 (ENSG00000204267.9),,−4.845
same,log2FoldChange TAPBP (ENSG00000231925.7),,−2.025
same,log2FoldChange TAPBPL (ENSG00000139192.7),,−2.548
same,log2FoldChange TCAF2 (ENSG00000170379.15),,−3.033
same,log2FoldChange TDRD7 (ENSG00000196116.6),,−0.8648
same,log2FoldChange TLR3 (ENSG00000164342.8),,−6.019
same,log2FoldChange TMEM108-AS1 (ENSG00000251011.1),,−3.649
same,log2FoldChange TMEM140 (ENSG00000146859.6),,−7.381
same,log2FoldChange TNFRSF14 (ENSG00000157873.13),,−3.995
same,log2FoldChange TNFSF10 (ENSG00000121858.6),,−4.43
same,log2FoldChange TRIM5 (ENSG00000132256.14),,−4.923
same,log2FoldChange TRIM21 (ENSG00000132109.8),,−5.586
same,log2FoldChange TRIM22 (ENSG00000132274.11),,−9.394
same,log2FoldChange TRIM26 (ENSG00000234127.4),,−0.6803
same,log2FoldChange TRIM56 (ENSG00000169871.8),,−2.411
same,log2FoldChange UBA7 (ENSG00000182179.6),,−5.004
same,log2FoldChange UBE2L6 (ENSG00000156587.11),,−4.982
same,log2FoldChange UBR2 (ENSG00000024048.6),,−0.9247
same,log2FoldChange USP33 (ENSG00000077254.10),,−0.3836
same,log2FoldChange USP42 (ENSG00000106346.7),,−0.5211
same,log2FoldChange WDR49 (ENSG00000174776.6),,−4.564
same,log2FoldChange ZC3HAV1 (ENSG00000105939.8),,−1.2
same,log2FoldChange,ACP5 ENSG00000102575.6,−3.911
same,log2FoldChange,B2M ENSG00000166710.13,−3.927
same,log2FoldChange,BCO1 ENSG00000135697.5,−3.705
same,log2FoldChange,BST2 ENSG00000130303.8,−9.567
same,log2FoldChange,C19orf38 ENSG00000214212.4,−2.581
same,log2FoldChange,C19orf66 ENSG00000130813.13,−3.602
same,log2FoldChange,CAPN3 ENSG00000092529.18,−1.639
same,log2FoldChange,CCDC194 ENSG00000269720.1,−5.08
same,log2FoldChange,CCL8 ENSG00000108700.4,−4.991
same,log2FoldChange,CCL25 ENSG00000131142.9,−5.742
same,log2FoldChange,CEACAM1 ENSG00000079385.17,−6.01
same,log2FoldChange,CIITA ENSG00000179583.13,−10.08
same,log2FoldChange,CX3CL1 ENSG00000006210.6,−2.039
same,log2FoldChange,DGLUCY ENSG00000133943.16,−1.417
same,log2FoldChange,DHX58 ENSG00000108771.8,−3.063
same,log2FoldChange,DLGAP1-AS5 ENSG00000261520.1,−7.006
same,log2FoldChange,DOCK9 ENSG00000088387.13,−1.102
same,log2FoldChange,DRAM1 ENSG00000136048.9,−2.646
same,log2FoldChange,ENSG00000225131.1 (symbol NA),−1.967
same,log2FoldChange,ENSG00000238045.5 (symbol NA),−1.974
same,log2FoldChange,ENSG00000238528.1 (symbol NA),−1.287
same,log2FoldChange,ENSG00000258733.1 (symbol NA),−3.393
